# Reference: patent US20040241648A1, “Phosphoribosyl pyrophosphate synthetase 1as herbicidal target” (priority 2000, published 2004)
# Molecular target: T1, Arabidopsis thaliana 5-phosphoribosyl-1-pyrophosphate synthetase 1 (Arabidopsis thaliana, UniProt Q42581)
# T1 construct: His-tag (from vector pFastBacHTb); made in house; host or cells: Sf21 insect cells (recombinant baculovirus, pFASTBAC HTb-AtPrs1)
# T1 sequence (Q42581 50-403): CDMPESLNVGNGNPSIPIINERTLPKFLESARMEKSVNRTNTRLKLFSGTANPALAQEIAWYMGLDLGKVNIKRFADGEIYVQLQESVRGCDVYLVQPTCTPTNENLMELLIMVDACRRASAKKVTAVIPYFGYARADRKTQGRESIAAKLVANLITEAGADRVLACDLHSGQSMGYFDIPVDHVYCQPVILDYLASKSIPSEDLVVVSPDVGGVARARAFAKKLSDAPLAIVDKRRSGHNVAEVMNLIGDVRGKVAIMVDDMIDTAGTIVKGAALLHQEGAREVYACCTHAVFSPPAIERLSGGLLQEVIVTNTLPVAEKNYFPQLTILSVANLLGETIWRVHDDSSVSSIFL
# Assay: 5-Phosphoribosyl-1-pyrophosphate synthetase 1 assay system (photometric, coupled enzyme, drop in NADH at 340 nm)
# Type: biochemical
# Conditions: 0.5-5 mM inhibitor, recombinant enzyme from Sf21 insect cells, 18 μg total protein
# Excerpt: To obtain active Arabidopsis thaliana 5-phosphoribosyl-1-pyrophosphate synthetase 1 for high-throughput screening methods, the Arabidopsis thaliana Prs1 fragment is obtained from vector pGEM-T AtPrs1 (FIG. 2) using the restriction enzymes BamHI and EcoRI (cleavage sites inserted via primers RBPRPP3 and RBPRPP4) and cloned into the identically cleaved transfer vector pFastBacHTb (GibcoBRL). The resulting construct pFASTBAC HTb-AtPrs1 is used in accordance with the manufacturer's instructions (GibcoBRL) for generating recombinant Baculovirus. This virus is employed in accordance with the manufacturer's instructions (GibcoBRL) for infecting Sf21 insect cells in order to generate active 5-phosphoribosyl-1-pyrophosphate synthetase 1 enzyme. The specific enzymatic phosphoribosyl-pyrophosphate synthetase 1 activity is measured photometrically after the cells have been sonicated. The following components are employed per 90 μl batch: […]
# After the cells had been sonicated in lysis buffer (50 mM NaH2PO4, 300 mM NaCl, pH 7.8), 18 μg of total protein are employed. […] What is measured is the drop in NADH at 340 nm.
compound,measurement,value
Nc1ncnc2c1ncn2[C@@H]1O[C@H](COP(=O)(O)OP(=O)(O)OP(=O)(O)O)C[C@H]1O [cordycepin-5′-triphosphate],inhibition of the enzymatic activity of the plant 5-phosphoribosyl-1-pyrophosphate synthetase 1,inhibits the enzymatic activity
